Literature values in patent US20170252421A1 (priority 2014, published 2017).

Structure (SMILES): CN(C)C(=N)N=C(N)N [metformin, Metformin]
- patients discontinuing the therapy due to the side effects (oral metformin): up to 5%
- patients experiencing gastrointestinal side effects (oral metformin): Up to 20%
- patients developing vitamin B12 deficiency (patients taking metformin): 77%
- reduction of morbidity and mortality rates (treating insulin resistance): about 30%
